Experiment [1] deals with P. aeruginosa MSC17707. Kind of experiment: MIC, agar plate dilution method, P. aeruginosa MSC17707. It counts as cell-based, Pseudomonas aeruginosa. Particulars: for MIC: Pseudomonas aeruginosa, MSC17707, P. aeruginosa MSC17707, AMK-resistant, read-out: minimal inhibitory concentration (MIC). In outline: (§1)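 Read-out is the lowest compound concentration inhibiting growth (MIC, μg/mL), obtained by the agar plate dilution procedure of the Japan Society of Chemotherapy.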

In experiment [2] the test system is S. aureus RN4220/pMS520. The experiment in a line: MIC, agar plate dilution method, S. aureus RN4220/pMS520. The note with it: for MIC: Staphylococcus aureus, MRSA, read-out: minimal inhibitory concentration (MIC), S. aureus RN4220/pMS520, MRSA. It counts as cell-based, Staphylococcus aureus. In outline: as §1
Experiment [3] has as its system S. marcescens TH-0447. Kind of experiment: MIC, agar plate dilution method, S. marcescens TH-0447. Particulars: for MIC: Serratia marcescens, TH0447, S. marcescens TH-0447, AMK-resistant, read-out: minimal inhibitory concentration (MIC). It counts as cell-based, Serratia marcescens. The essentials:
as §1

Experiment [4] deals with K. pneumoniae ATCC BAA-2146. The experiment in a line: MIC, agar plate dilution method, K. pneumoniae ATCC BAA-2146. The note with it: for MIC: Klebsiella pneumoniae, ATCCBAA2146, K. pneumoniae ATCC BAA-2146, NDM-producing strain, read-out: minimal inhibitory concentration (MIC). It counts as cell-based, Klebsiella pneumoniae. The essentials:
as §1

The test system of experiment [5] is P. aeruginosa PAO1. Kind of experiment: MIC, agar plate dilution method, P. aeruginosa PAO1. The note with it: for MIC: Pseudomonas aeruginosa, PAO1, P. aeruginosa PAO1, Sensitive bacterium, read-out: minimal inhibitory concentration (MIC). It counts as cell-based, Pseudomonas aeruginosa. The essentials:
as §1

Experiment [6] deals with P. aeruginosa MSC01035. The experiment in a line: MIC, agar plate dilution method, P. aeruginosa MSC01035. Particulars: P. aeruginosa MSC01035, ABK-resistant; for MIC: Pseudomonas aeruginosa, read-out: minimal inhibitory concentration (MIC). It counts as cell-based, Pseudomonas aeruginosa. In outline:
as §1

The test system of experiment [7] is A. baumannii ATCC BAA-1710. Kind of experiment: MIC, agar plate dilution method, A. baumannii ATCC BAA-1710. The note with it: for MIC: Acinetobacter baumannii, ATCCBAA1710, A. baumannii ATCC BAA-1710, MDRA, read-out: minimal inhibitory concentration (MIC). It counts as cell-based, Acinetobacter baumannii. The essentials: as §1
Experiment [8] has as its system S. aureus RN4220. Kind of experiment: MIC, agar plate dilution method, S. aureus RN4220. It counts as cell-based, Staphylococcus aureus. The note with it: for MIC: Staphylococcus aureus, RN4220, S. aureus RN4220, Sensitive bacterium, read-out: minimal inhibitory concentration (MIC). The essentials: as §1
Experiment [9] has as its system E. coli JM109/pMW218. Kind of experiment: MIC, agar plate dilution method, E. coli JM109/pMW218. It counts as cell-based, Escherichia coli. The note with it: for MIC: Escherichia coli, JM109/PMW218, E. coli JM109/pMW218, Sensitive bacterium, read-out: minimal inhibitory concentration (MIC). In outline:
as §1

Experiment [10] concerns K. pneumoniae ATCC BAA-1705. Kind of experiment: MIC, agar plate dilution method, K. pneumoniae ATCC BAA-1705. It counts as cell-based, Klebsiella pneumoniae. The note with it: for MIC: Klebsiella pneumoniae, ATCCBAA1705, K. pneumoniae ATCC BAA-1705, KPC-producing strain, read-out: minimal inhibitory concentration (MIC). In outline:
as §1

Experiment [11] concerns S. marcescens GN6944. Kind of experiment: MIC, agar plate dilution method, S. marcescens GN6944. The note with it: S. marcescens GN6944, GM-resistant; for MIC: Serratia marcescens, read-out: minimal inhibitory concentration (MIC). It counts as cell-based, Serratia marcescens. In outline:
as §1

Experiment [12] relates to P. aeruginosa PAO1/GN315. The experiment in a line: MIC, agar plate dilution method, P. aeruginosa PAO1/GN315. It counts as cell-based, Pseudomonas aeruginosa. Particulars: for MIC: Pseudomonas aeruginosa, read-out: minimal inhibitory concentration (MIC), P. aeruginosa PAO1/GN315, AMK-resistant. The essentials:
as §1

In experiment [13] the test system is S. aureus MF490. The experiment in a line: MIC, agar plate dilution method, S. aureus MF490. It counts as cell-based, Staphylococcus aureus. Particulars: for MIC: Staphylococcus aureus, MRSA, read-out: minimal inhibitory concentration (MIC). In outline: as §1
The test system of experiment [14] is E. faecium ATCC19434. The experiment in a line: MIC, agar plate dilution method, E. faecium ATCC19434. It counts as cell-based, Enterococcus faecium. The note with it: for MIC: Enterococcus faecium, ATCC19434, E. faecium ATCC19434, read-out: minimal inhibitory concentration (MIC). In outline: as §1

Each structure is given as a SMILES string. ≈ marks a conversion by molar mass, not a printed value.

With `CNC1C(OC2OC(CO)C(NC(=O)C(N)CO)C(O)C2O)OC2CC(N)C(OC3C(N)CC(N)C(O)C3O)OC2C1O` [Compound V1-l, 5-epi-4″-N-(L-seryl)apramycin], the “minimal inhibitory concentration (MIC)” value is 4 µg/mL (≈ 6.38 µM) in experiment [1] (P. aeruginosa MSC17707, AMK-resistant); 4 µg/mL (≈ 6.38 µM) in [2] (S. aureus RN4220/pMS520, MRSA); 8 µg/mL (≈ 12.8 µM) in experiment [3] (S. marcescens TH-0447, AMK-resistant); 1 µg/mL (≈ 1.6 µM) in experiment [4] (K. pneumoniae ATCC BAA-2146, NDM-producing strain); 4 µg/mL (≈ 6.38 µM) in experiment [5] (P. aeruginosa PAO1, Sensitive bacterium); 8 µg/mL (≈ 12.8 µM) in experiment [6]. The “minimal inhibitory concentration (MIC)” value in experiment [7] (A. baumannii ATCC BAA-1710, MDRA) stood at 8 µg/mL (≈ 12.8 µM); in experiment [8] (S. aureus RN4220, Sensitive bacterium) it was 4 µg/mL (≈ 6.38 µM); in experiment [9] (E. coli JM109/pMW218, Sensitive bacterium), 1 µg/mL (≈ 1.6 µM); in experiment [10] (K. pneumoniae ATCC BAA-1705, KPC-producing strain), 1 µg/mL (≈ 1.6 µM); in experiment [11], 8 µg/mL (≈ 12.8 µM); in [12] (P. aeruginosa PAO1/GN315, AMK-resistant), 4 µg/mL (≈ 6.38 µM). Further, the “minimal inhibitory concentration (MIC)” value came to 8 µg/mL (≈ 12.8 µM) in [13] (S. aureus MF490, MRSA) and 32 µg/mL (≈ 51.1 µM) in experiment [14] (E. faecium ATCC19434).
For `CNC1C(O[C@H]2OC(CO)[C@@H](NC(=O)CCN)[C@H](O)C2O)O[C@H]2C[C@H](N)[C@@H](O[C@@H]3C(N)C[C@@H](N)C(O)[C@H]3O)OC2C1O` (stereo partly drawn) [Compound V1-m, 4″-N-(β-alanyl)-5-epiapramycin], the MIC was 2 µg/mL (≈ 3.28 µM) in experiment [1]; 2 µg/mL (≈ 3.28 µM) in experiment [2]; 8 µg/mL (≈ 13.1 µM) in experiment [3]; 1 µg/mL (≈ 1.64 µM) in experiment [4]; 2 µg/mL (≈ 3.28 µM) in experiment [5]; 4 µg/mL (≈ 6.55 µM) in [6]. Besides, the MIC in [7] was 8 µg/mL (≈ 13.1 µM); in experiment [8], 2 µg/mL (≈ 3.28 µM); in experiment [9] it was 1 µg/mL (≈ 1.64 µM); in [10], 1 µg/mL (≈ 1.64 µM); in experiment [11] it was 8 µg/mL (≈ 13.1 µM); in [12] it was 4 µg/mL (≈ 6.55 µM). Moreover, the MIC in experiment [13] was 8 µg/mL (≈ 13.1 µM); in [14], 16 µg/mL (≈ 26.2 µM).
On to `CNC1C(O[C@H]2OC(CO)[C@@H](NC(=O)[C@@H](O)CN)[C@H](O)C2O)O[C@H]2C[C@H](N)[C@@H](O[C@@H]3C(N)C[C@@H](N)C(O)[C@H]3O)OC2C1O` (stereo partly drawn) [Compound V1-n, 5-epi-4″-N-(L-isoseryl)apramycin], for which the MIC was 2 µg/mL (≈ 3.19 µM) in experiment [1]; 2 µg/mL (≈ 3.19 µM) in experiment [2]; 8 µg/mL (≈ 12.8 µM) in experiment [3]; 1 µg/mL (≈ 1.6 µM) in [4]; 2 µg/mL (≈ 3.19 µM) in experiment [5]; 4 µg/mL (≈ 6.38 µM) in [6]. In addition, the MIC was 8 µg/mL (≈ 12.8 µM) in [7]; 2 µg/mL (≈ 3.19 µM) in experiment [8]; 0.5 µg/mL (≈ 0.798 µM) in experiment [9]; 1 µg/mL (≈ 1.6 µM) in experiment [10]; 8 µg/mL (≈ 12.8 µM) in experiment [11]; 4 µg/mL (≈ 6.38 µM) in [12]. For the same compound, the MIC in experiment [13] turned out to be 8 µg/mL (≈ 12.8 µM); in experiment [14] it was 16 µg/mL (≈ 25.5 µM).
For `CNC1C(O[C@H]2OC(CO)[C@@H](NC(=O)CN)[C@H](O)C2O)O[C@H]2C[C@H](N)[C@@H](O[C@@H]3C(N)C[C@@H](N)C[C@H]3O)OC2C1O` (stereo partly drawn) [Compound V1-o, 6-deoxy-5-epi-4″-N-glycylapramycin], the MIC in [1] worked out at 2 µg/mL (≈ 3.44 µM); in experiment [2], 1 µg/mL (≈ 1.72 µM); in experiment [3] it was 8 µg/mL (≈ 13.8 µM); in experiment [4], 1 µg/mL (≈ 1.72 µM); in experiment [5], 2 µg/mL (≈ 3.44 µM); in experiment [6], 4 µg/mL (≈ 6.89 µM). Also, the MIC turned out to be 4 µg/mL (≈ 6.89 µM) in experiment [7]; 1 µg/mL (≈ 1.72 µM) in experiment [8]; 0.5 µg/mL (≈ 0.861 µM) in experiment [9]; 1 µg/mL (≈ 1.72 µM) in experiment [10]; 4 µg/mL (≈ 6.89 µM) in experiment [11]; 2 µg/mL (≈ 3.44 µM) in experiment [12]. Further, the results for the MIC in experiment [13] and in [14] were 4 µg/mL (≈ 6.89 µM) and 8 µg/mL (≈ 13.8 µM), respectively.
